Measurements published in PubChem BioAssay (NCI).
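How tested: cells in 96-well plates exposed to compound for 48 hours at five concentrations. The concentration for full growth arrest is given as TGI.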

Tests used:
Test in all cases: NCI tumour cell line growth inhibition, 48 h
HCT-15 colon = test system: HCT-15 colon
M14 melanoma = test system: M14 melanoma
HCC-2998 colon = test system: HCC-2998 colon
DMS 114 small cell lung = test system: DMS 114 small cell lung
SNB-19 CNS = test system: SNB-19 CNS
IGROV1 ovarian = test system: IGROV1 ovarian
RXF-631 renal = test system: RXF-631 renal
NCI-H522 lung = test system: NCI-H522 lung
LXFL 529 NSCLC = test system: LXFL 529 NSCLC
MOLT-4 leukemia = test system: MOLT-4 leukemia
NCI-H226 lung = test system: NCI-H226 lung
NCI-H460 lung = test system: NCI-H460 lung
SW-620 colon = test system: SW-620 colon
HOP-62 NSCLC = test system: HOP-62 NSCLC
A498 renal = test system: A498 renal
HCT-116 colon = test system: HCT-116 colon
MALME-3M melanoma = test system: MALME-3M melanoma
CCRF-CEM leukemia = test system: CCRF-CEM leukemia
UACC-257 melanoma = test system: UACC-257 melanoma
SF-268 CNS = test system: SF-268 CNS
OVCAR-3 ovarian = test system: OVCAR-3 ovarian
DLD-1 colon = test system: DLD-1 colon
NCI-H23 lung = test system: NCI-H23 lung
M19-MEL melanoma = test system: M19-MEL melanoma
KM20L2 colon = test system: KM20L2 colon
COLO 205 colon = test system: COLO 205 colon
HT29 colon = test system: HT29 colon
786-0 renal = test system: 786-0 renal
RPMI-8226 leukemia = test system: RPMI-8226 leukemia
A549 NSCLC = test system: A549 NSCLC
OVCAR-5 ovarian = test system: OVCAR-5 ovarian
DMS 273 small cell lung = test system: DMS 273 small cell lung
SK-MEL-5 melanoma = test system: SK-MEL-5 melanoma
KM12 colon = test system: KM12 colon
K-562 leukemia = test system: K-562 leukemia
SK-MEL-2 melanoma = test system: SK-MEL-2 melanoma
SNB-75 CNS = test system: SNB-75 CNS
SF-539 CNS = test system: SF-539 CNS
SK-MEL-28 melanoma = test system: SK-MEL-28 melanoma
SR leukemia = test system: SR leukemia
OVCAR-8 ovarian = test system: OVCAR-8 ovarian
UACC-62 melanoma = test system: UACC-62 melanoma
HOP-92 NSCLC = test system: HOP-92 NSCLC
SK-OV-3 ovarian = test system: SK-OV-3 ovarian
U251 CNS = test system: U251 CNS
SN12C renal = test system: SN12C renal
SNB-78 CNS = test system: SNB-78 CNS
EKVX NSCLC = test system: EKVX NSCLC
ACHN renal = test system: ACHN renal
UO-31 renal = test system: UO-31 renal
XF 498 CNS = test system: XF 498 CNS
LOX IMVI melanoma = test system: LOX IMVI melanoma
CAKI-1 renal = test system: CAKI-1 renal
RXF 393 renal = test system: RXF 393 renal
HL-60(TB) leukemia = test system: HL-60(TB) leukemia
HOP-18 NSCLC = test system: HOP-18 NSCLC
SF-295 CNS = test system: SF-295 CNS
TK-10 renal = test system: TK-10 renal
OVCAR-4 ovarian = test system: OVCAR-4 ovarian

Measured: TGI

COc1cccc(/C=C/c2cc(OC)c(OC)c(OC)c2)c1
60.1 µM: SNB-75 CNS
87.7 µM: KM20L2 colon
not listed: LOX IMVI melanoma | CAKI-1 renal | RXF 393 renal | HL-60(TB) leukemia | HOP-18 NSCLC | SF-295 CNS | TK-10 renal | OVCAR-4 ovarian
> 100 µM: all other assays above

COc1ccc(C2C(Cl)C(=O)N2n2cnc3ccccc3c2=O)cc1 (stereo not given)
91.6 µM: M14 melanoma
86.2 µM: SNB-75 CNS
not listed: RXF-631 renal | A498 renal | CCRF-CEM leukemia | SF-539 CNS | HOP-92 NSCLC
> 100 µM: all other assays above
